Experimental data taken from PubChem BioAssay (NCI).
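All cell lines were grown in 96-well plates and treated with compound for 48 hours. GI50: concentration for 50% inhibition of growth. TGI is the concentration that stops growth completely.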

Legend:
Assay in all cases: NCI tumour cell line growth inhibition, 48 h
HL-60(TB) leukemia = test system: HL-60(TB) leukemia
SF-539 CNS = test system: SF-539 CNS
UACC-257 melanoma = test system: UACC-257 melanoma
SF-295 CNS = test system: SF-295 CNS
SR leukemia = test system: SR leukemia
NCI-H226 lung = test system: NCI-H226 lung
PC-3 prostate = test system: PC-3 prostate
HCT-116 colon = test system: HCT-116 colon
SNB-19 CNS = test system: SNB-19 CNS
OVCAR-8 ovarian = test system: OVCAR-8 ovarian
NCI-H522 lung = test system: NCI-H522 lung
SF-268 CNS = test system: SF-268 CNS
HOP-62 NSCLC = test system: HOP-62 NSCLC
MDA-MB-231 breast = test system: MDA-MB-231 breast
HCT-15 colon = test system: HCT-15 colon
DU-145 prostate = test system: DU-145 prostate
SK-MEL-2 melanoma = test system: SK-MEL-2 melanoma
NCI/ADR-RES ovarian = test system: NCI/ADR-RES ovarian
MALME-3M melanoma = test system: MALME-3M melanoma
OVCAR-5 ovarian = test system: OVCAR-5 ovarian
TK-10 renal = test system: TK-10 renal
HT29 colon = test system: HT29 colon
NCI-H23 lung = test system: NCI-H23 lung
BT-549 breast = test system: BT-549 breast
KM12 colon = test system: KM12 colon
SK-MEL-28 melanoma = test system: SK-MEL-28 melanoma
MOLT-4 leukemia = test system: MOLT-4 leukemia
A498 renal = test system: A498 renal
CAKI-1 renal = test system: CAKI-1 renal
NCI-H460 lung = test system: NCI-H460 lung
RPMI-8226 leukemia = test system: RPMI-8226 leukemia
T-47D breast = test system: T-47D breast
SW-620 colon = test system: SW-620 colon
SK-OV-3 ovarian = test system: SK-OV-3 ovarian
CCRF-CEM leukemia = test system: CCRF-CEM leukemia
A549 NSCLC = test system: A549 NSCLC
UO-31 renal = test system: UO-31 renal
U251 CNS = test system: U251 CNS
UACC-62 melanoma = test system: UACC-62 melanoma
SNB-75 CNS = test system: SNB-75 CNS
786-0 renal = test system: 786-0 renal
HS 578T breast = test system: HS 578T breast
OVCAR-4 ovarian = test system: OVCAR-4 ovarian
OVCAR-3 ovarian = test system: OVCAR-3 ovarian
IGROV1 ovarian = test system: IGROV1 ovarian
SK-MEL-5 melanoma = test system: SK-MEL-5 melanoma
MCF7 breast = test system: MCF7 breast
MDA-MB-435 = test system: MDA-MB-435
HCC-2998 colon = test system: HCC-2998 colon
LOX IMVI melanoma = test system: LOX IMVI melanoma
M14 melanoma = test system: M14 melanoma
K-562 leukemia = test system: K-562 leukemia
COLO 205 colon = test system: COLO 205 colon
ACHN renal = test system: ACHN renal
HOP-92 NSCLC = test system: HOP-92 NSCLC
RXF 393 renal = test system: RXF 393 renal
SN12C renal = test system: SN12C renal
EKVX NSCLC = test system: EKVX NSCLC

## COc1ccc(F)cc1C(=O)c1cnc(NC2CCN(S(C)(=O)=O)CC2)nc1N
HL-60(TB) leukemia
  GI50: 1.66 µM
  TGI: 18.1 µM
SF-539 CNS
  GI50: 3.29 µM
  TGI: 7.77 µM
UACC-257 melanoma
  GI50: 4.24 µM
  TGI: 15.5 µM
SF-295 CNS
  GI50: 1.68 µM
  TGI: > 15.5 µM
SR leukemia
  GI50: 0.885 µM
  TGI: > 14.8 µM
NCI-H226 lung
  GI50: 2.56 µM
  TGI: > 20.6 µM
PC-3 prostate
  GI50: 2.79 µM
  TGI: 18.1 µM
HCT-116 colon
  GI50: 1.21 µM
  TGI: > 25 µM
SNB-19 CNS
  GI50: 1.8 µM
  TGI: > 25 µM
OVCAR-8 ovarian
  GI50: 3.95 µM
  TGI: > 21.6 µM
NCI-H522 lung
  GI50: 4.3 µM
  TGI: 14.7 µM
SF-268 CNS
  GI50: 4.58 µM
  TGI: 18.1 µM
HOP-62 NSCLC
  GI50: 5.42 µM
  TGI: > 20.6 µM
MDA-MB-231 breast
  GI50: 2.49 µM
  TGI: > 25 µM
HCT-15 colon
  GI50: 2.86 µM
  TGI: > 20.5 µM
DU-145 prostate
  GI50: 5.52 µM
  TGI: 24.5 µM
SK-MEL-2 melanoma
  GI50: 3.48 µM
  TGI: 9.76 µM
NCI/ADR-RES ovarian
  GI50: 6.26 µM
  TGI: > 25 µM
MALME-3M melanoma
  GI50: 3.57 µM
  TGI: > 16.8 µM
OVCAR-5 ovarian
  GI50: 1.4 µM
  TGI: > 14.7 µM
TK-10 renal
  GI50: 1.83 µM
  TGI: 14.7 µM
HT29 colon
  GI50: 2.86 µM
  TGI: > 18.2 µM
NCI-H23 lung
  GI50: 2.97 µM
  TGI: 16.7 µM
BT-549 breast
  GI50: 4.11 µM
  TGI: 14.3 µM
KM12 colon
  GI50: 2.4 µM
  TGI: > 25 µM
SK-MEL-28 melanoma
  GI50: 3.38 µM
  TGI: > 16.4 µM
MOLT-4 leukemia
  GI50: 2.66 µM
  TGI: > 19 µM
A498 renal
  GI50: 3.22 µM
  TGI: 8.06 µM
CAKI-1 renal
  GI50: 2.88 µM
  TGI: > 17.6 µM
NCI-H460 lung
  GI50: 0.783 µM
  TGI: > 25 µM
RPMI-8226 leukemia
  GI50: 3.27 µM
  TGI: 13.1 µM
T-47D breast
  GI50: 4.49 µM
  TGI: > 22.6 µM
SW-620 colon
  GI50: 0.636 µM
  TGI: > 16.6 µM
SK-OV-3 ovarian
  GI50: 8.82 µM
  TGI: > 25 µM
CCRF-CEM leukemia
  GI50: 2.63 µM
  TGI: > 21.3 µM
A549 NSCLC
  GI50: 3.14 µM
  TGI: > 23.7 µM
UO-31 renal
  GI50: 3.69 µM
  TGI: > 18.6 µM
U251 CNS
  GI50: 1.07 µM
  TGI: > 19.6 µM
UACC-62 melanoma
  GI50: 2.75 µM
  TGI: 8.95 µM
SNB-75 CNS
  GI50: 3.97 µM
  TGI: 10.2 µM
786-0 renal
  GI50: 5.03 µM
  TGI: > 25 µM
HS 578T breast
  GI50: 3.93 µM
  TGI: 17.8 µM
OVCAR-4 ovarian
  GI50: 5.7 µM
  TGI: > 21.4 µM
OVCAR-3 ovarian
  GI50: 4.15 µM
  TGI: 14.6 µM
IGROV1 ovarian
  GI50: 1.84 µM
  TGI: > 13.6 µM
SK-MEL-5 melanoma
  GI50: 3.12 µM
  TGI: > 21.4 µM
MCF7 breast
  GI50: 0.18 µM
  TGI: > 25 µM
MDA-MB-435
  GI50: 2.39 µM
  TGI: > 25 µM
HCC-2998 colon
  GI50: 3.55 µM
  TGI: > 25 µM
LOX IMVI melanoma
  GI50: 2.09 µM
  TGI: > 25 µM
M14 melanoma
  GI50: 4.51 µM
  TGI: > 25 µM
K-562 leukemia
  GI50: 6.25 µM
  TGI: > 25 µM
COLO 205 colon
  GI50: 1.25 µM
  TGI: 5.22 µM
ACHN renal
  GI50: 1.55 µM
  TGI: > 21.4 µM
HOP-92 NSCLC
  GI50: 1.35 µM
  TGI: 9.59 µM
RXF 393 renal
  GI50: 2.75 µM
  TGI: 6.58 µM
SN12C renal
  GI50: 4.92 µM
  TGI: > 25 µM

## Cc1cc(C)nc(SC2=C(Nc3cccc(Cl)c3)C(=O)N(Cc3ccccc3)C2=O)n1
HL-60(TB) leukemia
  GI50: > 170 µM
  TGI: > 170 µM
SF-539 CNS
  GI50: > 170 µM
  TGI: > 170 µM
UACC-257 melanoma
  GI50: > 170 µM
  TGI: > 170 µM
SF-295 CNS
  GI50: > 170 µM
  TGI: > 170 µM
SR leukemia
  GI50: > 170 µM
  TGI: > 170 µM
NCI-H226 lung
  GI50: 0.729 µM
  TGI: 9.43 µM
PC-3 prostate
  GI50: > 170 µM
  TGI: > 170 µM
HCT-116 colon
  GI50: > 170 µM
  TGI: > 170 µM
SNB-19 CNS
  GI50: > 170 µM
  TGI: > 170 µM
OVCAR-8 ovarian
  GI50: > 170 µM
  TGI: > 170 µM
NCI-H522 lung
  GI50: > 170 µM
  TGI: > 170 µM
SF-268 CNS
  GI50: > 170 µM
  TGI: > 170 µM
HOP-62 NSCLC
  GI50: 42.3 µM
  TGI: > 170 µM
MDA-MB-231 breast
  GI50: > 170 µM
  TGI: > 170 µM
HCT-15 colon
  GI50: > 170 µM
  TGI: > 170 µM
DU-145 prostate
  GI50: > 170 µM
  TGI: > 170 µM
SK-MEL-2 melanoma
  GI50: > 170 µM
  TGI: > 170 µM
NCI/ADR-RES ovarian
  GI50: > 170 µM
  TGI: > 170 µM
MALME-3M melanoma
  GI50: > 170 µM
  TGI: > 170 µM
OVCAR-5 ovarian
  GI50: > 170 µM
  TGI: > 170 µM
TK-10 renal
  GI50: > 170 µM
  TGI: > 170 µM
HT29 colon
  GI50: > 170 µM
  TGI: > 170 µM
NCI-H23 lung
  GI50: > 170 µM
  TGI: > 170 µM
BT-549 breast
  GI50: > 170 µM
  TGI: > 170 µM
KM12 colon
  GI50: > 170 µM
  TGI: > 170 µM
SK-MEL-28 melanoma
  GI50: > 170 µM
  TGI: > 170 µM
MOLT-4 leukemia
  GI50: > 170 µM
  TGI: > 170 µM
A498 renal
  GI50: > 170 µM
  TGI: > 170 µM
CAKI-1 renal
  GI50: > 170 µM
  TGI: > 170 µM
NCI-H460 lung
  GI50: > 170 µM
  TGI: > 170 µM
RPMI-8226 leukemia
  GI50: > 170 µM
  TGI: > 170 µM
T-47D breast
  GI50: > 170 µM
  TGI: > 170 µM
SW-620 colon
  GI50: > 170 µM
  TGI: > 170 µM
SK-OV-3 ovarian
  GI50: > 170 µM
  TGI: > 170 µM
CCRF-CEM leukemia
  GI50: > 170 µM
  TGI: > 170 µM
A549 NSCLC
  GI50: > 170 µM
  TGI: > 170 µM
UO-31 renal
  GI50: > 170 µM
  TGI: > 170 µM
U251 CNS
  GI50: > 170 µM
  TGI: > 170 µM
UACC-62 melanoma
  GI50: 34.9 µM
  TGI: > 170 µM
SNB-75 CNS
  GI50: > 170 µM
  TGI: > 170 µM
786-0 renal
  GI50: > 170 µM
  TGI: > 170 µM
HS 578T breast
  GI50: > 170 µM
  TGI: > 170 µM
OVCAR-4 ovarian
  GI50: > 170 µM
  TGI: > 170 µM
OVCAR-3 ovarian
  GI50: > 170 µM
  TGI: > 170 µM
IGROV1 ovarian
  GI50: > 170 µM
  TGI: > 170 µM
SK-MEL-5 melanoma
  GI50: > 170 µM
  TGI: > 170 µM
MCF7 breast
  GI50: > 170 µM
  TGI: > 170 µM
MDA-MB-435
  GI50: > 170 µM
  TGI: > 170 µM
HCC-2998 colon
  GI50: > 170 µM
  TGI: > 170 µM
LOX IMVI melanoma
  GI50: > 170 µM
  TGI: > 170 µM
M14 melanoma
  GI50: 39.6 µM
  TGI: > 170 µM
K-562 leukemia
  GI50: 5.25 µM
  TGI: > 170 µM
COLO 205 colon
  GI50: > 170 µM
  TGI: > 170 µM
ACHN renal
  GI50: > 170 µM
  TGI: > 170 µM
HOP-92 NSCLC
  GI50: > 170 µM
  TGI: > 170 µM
EKVX NSCLC
  GI50: > 170 µM
  TGI: > 170 µM
